For five compounds, Specific surface area results are on record in patent publication US6475507B1, “Sustained release compositions and the process for their preparation” (priority 1997, dated 2002).

This data set in a line: Specific surface area of the active substance by the BET method. Conditions: peptide salt after lyophilization (or starting material). Format: physicochemical. Here is the method: For all these examples, the inherent viscosities (IV) were measured by the conventional methods of flow time measurement, as described for example in “Pharmacopoée Européenne”, 1997, pages 17-18 (capillary tube method). Unless stated otherwise, these viscosities have been measured in chloroform at a concentration of 0.1% at 25° C. or in hexaisofluoropropanol at a concentration of 0.5% at 30° C. Where measured, the specific surface area of the active substance was determined by the so-called BET method (absorption of a nitrogen monolayer on the active substance), a method well known to a person skilled in the art.
Take `CC(C)[C@@H]1NC(=O)[C@H](CCCCN)NC(=O)[C@@H](Cc2c[nH]c3ccccc23)NC(=O)[C@H](Cc2ccc(O)cc2)NC(=O)[C@@H](NC(=O)[C@H](N)Cc2ccc3ccccc3c2)CSSC[C@@H](C(=O)N[C@H](C(N)=O)[C@@H](C)O)NC1=O` [Example 14, lanreotide acetate]: the Specific surface area came out at 43 m^2/g.

For “triptorelin acetate [unmodified triptorelin acetate, reference compound]”, the Specific surface area came out at 0.8 m^2/g.

As to `CC(C)[C@@H]1NC(=O)[C@H](CCCCN)NC(=O)[C@@H](Cc2c[nH]c3ccccc23)NC(=O)[C@H](Cc2ccc(O)cc2)NC(=O)[C@@H](NC(=O)[C@H](N)Cc2ccc3ccccc3c2)CSSC[C@@H](C(=O)N[C@H](C(N)=O)[C@@H](C)O)NC1=O` [Example 13, lanreotide acetate], the Specific surface area worked out at 36 m^2/g.

For the compound “triptorelin acetate [modified triptorelin acetate]”, the Specific surface area is 4.7 m^2/g.

With `CC(C)[C@@H]1NC(=O)[C@H](CCCCN)NC(=O)[C@@H](Cc2c[nH]c3ccccc23)NC(=O)[C@H](Cc2ccc(O)cc2)NC(=O)[C@@H](NC(=O)[C@H](N)Cc2ccc3ccccc3c2)CSSC[C@@H](C(=O)N[C@H](C(N)=O)[C@@H](C)O)NC1=O` [modified lanreotide acetate, lanreotide acetate], the Specific surface area was 4.4 m^2/g.
